The values that follow are results of earlier work, collected in the CATMoS acute toxicity set (Mansouri et al. 2021).

Usually LD50 stands for the dose at which mortality reaches 50%.

This data set in a line: rat acute oral toxicity. To be noted: in vivo.
Regarding `O=C(CCCN1CCC(O)(c2ccc(Cl)c(C(F)(F)F)c2)CC1)c1ccc(F)cc1`, the LD50 was 195 mg/kg. Consider `CCCCN1C(=O)c2cccc([N+](=O)[O-])c2C1=O`, for which the median lethal dose (LD50) is 2030 mg/kg. Regarding `CC(C)C1=CCC(CCOC=O)=CC1`, the LD50 is 3570 mg/kg. For `O=C(OCCOCCN1CCCCC1)N1c2ccccc2Sc2cccnc21`, the LD50 was 530 mg/kg.

With `Nc1cc(Cl)cc(C(=O)O)c1Cl`, the LD50 was 3500 mg/kg. As for `CCCCSc1ccc(C(SCCN(C)C)c2ccccc2)cc1` (stereo not drawn), the LD50 is 3800 mg/kg. For `NC1CC1`, the LD50 was 445 mg/kg. `CC(=O)NCCO`: the LD50 was 27000 mg/kg.

For the molecule `O=C(OCC(O)CO)c1ccccc1Nc1ccnc2cc(Cl)ccc12` (stereo not drawn), the LD50 is 2300 mg/kg.

Turning to `COP(=S)(OC)Oc1cc(Cl)c([N+](=O)[O-])c(Cl)c1`, the LD50 was 750 mg/kg.

Regarding `Cc1cc(Cl)ccc1OCCCC(=O)O`, the median lethal dose (LD50) is 700 mg/kg. Regarding `O=C1CCCN1c1cccc2cccnc12`, the LD50 was 1650 mg/kg. Take `O=S1(=O)CS(=O)(=O)OCO1`: the LD50 is 300 mg/kg. For `Cc1ccc(Oc2cc(SCC(=O)NN)ncn2)cc1`, the LD50 was 460 mg/kg. For the molecule `CNP1(=S)OCc2cc([N+](=O)[O-])ccc2O1` (stereo not drawn), the 50% lethal dose (LD50) was 125 mg/kg. Turning to `COP(=S)(OC)OC1CCCCC1`, the 50% lethal dose (LD50) is 2900 mg/kg.

`N#CCCN(CCN)CCN`: the LD50 is 4550 mg/kg.

`CCSC(=S)N(CC)CC`: the LD50 was 712 mg/kg. Regarding `CCOC(CC)(C1=NCC(C)(C)CN1)c1ccc(Cl)cc1` (stereo not drawn), the LD50 is 58 mg/kg.

Consider `c1ccc(-c2ccc(C(c3ccccc3)n3ccnc3)cc2)cc1` (stereo not drawn), for which the LD50 is 1460 mg/kg. `COC1=CC(=O)OC(C=CC2=CCCC=C2)C1` (stereo not drawn): the LD50 was 16000 mg/kg. In the case of `CC(C)=CCC(CCN(C)C)(C(N)=O)c1cccc2ccccc12` (stereo not drawn), the LD50 was 143 mg/kg. For the molecule `CSCCC(O)C#N` (stereo not drawn), the LD50 was 48 mg/kg. Regarding `CN(N=O)C1CCS(=O)(=O)C1` (stereo not drawn), the LD50 was 750 mg/kg. For the molecule `OCC(F)(F)C(F)(F)C(F)(F)CO`, the LD50 was 1780 mg/kg.

With `Oc1c(Cl)c(Cl)cc2[nH]c(C(F)(F)F)nc12`, the 50% lethal dose (LD50) is 52 mg/kg. In the case of `CNC(=O)ON=C1SCCSC1(C)C`, the LD50 was 0.27 mg/kg. Consider `CCCc1ccn[nH]1`, for which the LD50 is 616 mg/kg. Regarding `CCN1CCCC1CNS(=O)(=O)c1cc(Cl)c(N)cc1OC` (stereo not drawn), the LD50 is 1500 mg/kg. `Clc1cccc(-c2cc(Cl)cc(Cl)c2)c1`: the LD50 is 2300 mg/kg. `ClCC(Cl)(Cl)CCl`: the LD50 is 6300 mg/kg. As for `Cc1ccc(C(C)C=O)cc1` (stereo not drawn), the LD50 is 3500 mg/kg. As to `C=CC(=O)NC(C)(C)CS(=O)(=O)O`, the LD50 was 16000 mg/kg. As for `CS(=O)(=O)OCCN(CCOS(C)(=O)=O)S(C)(=O)=O`, the 50% lethal dose (LD50) is 300 mg/kg. Consider `C=S`, for which the LD50 was 365 mg/kg.

Consider `NS(=O)(=O)c1ccc2nc(C(F)(F)F)[nH]c2c1`, for which the LD50 was 21 mg/kg. With `CC1(C)CC(N2C(C)(C)CC(N)CC2(C)C)CC(C)(C)N1`, the LD50 was 2170 mg/kg. With `O=C(Cl)c1ccc(C(=O)Cl)cc1`, the LD50 was 2500 mg/kg. Turning to `CC1CCC=C2N(C)C=C(C(=N)O)C(=O)N21` (stereo not drawn), the LD50 was 750 mg/kg. For `O=C1[C@H]2C[C@@H]3[C@@H]4[C@H]2[C@]2(Cl)[C@@H](Cl)[C@](Cl)([C@H]13)[C@@]4(Cl)C2(Cl)Cl` (racemic), the LD50 was 10 mg/kg. With `CCOP(=O)(OCC)SCCSCC`, the LD50 was 1.5 mg/kg. For the molecule `CN(C)S(=O)(=O)N(SC(F)(Cl)Cl)c1ccccc1`, the LD50 is 500 mg/kg.

`COC(=O)C(C)c1ccc(-c2ccsc2)cc1` (stereo not drawn): the LD50 is 2330 mg/kg. Take `CCCCC(C#N)(Cn1ccnc1)c1ccccc1` (stereo not drawn): the median lethal dose (LD50) was 1590 mg/kg. Regarding `CC(C)=CCC1=C(O)C(C(=O)CC(C)C)=C(O)C(CC=C(C)C)(CC=C(C)C)C1=O`, the LD50 was 100 mg/kg. With `Nc1ncnc2[nH]ncc12`, the LD50 was 141 mg/kg. Take `BrC(Br)(Br)c1ccc2ccccc2n1`: the LD50 is 6770 mg/kg.

For the molecule `CCCN(CCC)C(=O)C(CCC(=O)N1CCN(CCOC(=O)Cc2c(C)n(C(=O)c3ccc(Cl)cc3)c3ccc(OC)cc23)CC1)NC(=O)c1ccccc1` (stereo not drawn), the LD50 was 315 mg/kg.

For the molecule `CCc1ccc(C)cc1O`, the LD50 is 530 mg/kg.

For the molecule `O=NN1CCNCC1`, the LD50 is 2260 mg/kg. Regarding `O=[N+]([O-])c1cc([N+](=O)[O-])c(Nc2c(Br)cc(Br)cc2Br)c(C(F)(F)F)c1`, the LD50 is 4.43 mg/kg. For `CCC(C)N(C(=O)SCc1ccccc1)C(C)CC` (stereo not drawn), the 50% lethal dose (LD50) is 10000 mg/kg. Consider `OCCOCCOCCOCCOc1ccccc1`, for which the median lethal dose (LD50) is 1260 mg/kg. As to `CC(C)CCCCCCCCCCOCCCN`, the LD50 is 300 mg/kg. Regarding `CCC(=O)Nc1ncc(Cl)s1`, the 50% lethal dose (LD50) was 316 mg/kg. Consider `CO[Si](CCCN=C=O)(OC)OC`, for which the median lethal dose (LD50) is 878 mg/kg.

With `NCC(CC(=O)O)c1ccc(Cl)cc1` (stereo not drawn), the LD50 was 145 mg/kg. On to `OCC1COC(c2ccccc2)O1` (stereo not drawn), for which the LD50 is 3150 mg/kg.
